One block for each molecule: values may come before it.
How the values were obtained:
[1] = at 25 °C; cited from earlier work
[2] = Physical stability test of aqueous metronidazole compositions (crystal formation or precipitation); format: physicochemical; details: for Results from stability test: 24 h room temperature then 7 days at about 4 °C
Experimental: The solubility enhancing effect of the combination of niacinamide and urea in increasing the solubility of metronidazole in the aqueous compositions is evaluated by physical stability of the prepared compositions.
Therefore, the formulations are subject to a physical stability test. The protocol for the stability test is as follows: metronidazole and the solubility enhancing agents are combined with water either at room temperature or elevated temperature while stirring until dissolved. The solutions are permitted to cool to room temperature. Customary auxiliaries and additives may be added to the aqueous solutions containing solubilized metronidazole and solubility enhancing agents. The solutions may be gelled by using the suitable gelling agents. The compositions both in gel or solution form are then packaged in clear glass vials and sealed. The vials are kept at room temperature for 24 hours and monitored for crystal formation or precipitation. After 24 hours, the vials are placed in a refrigerator maintained at a temperature of about 4° C. for 7 days. After 7 days, the vials are removed from the refrigerator. Evidence of crystal formation or precipitation is examined.
(§1) Each formulation was prepared by combining niacinamide and metronidazole in water (q.s 100%). The mixture was kept at a temperature of about 45° C. while stirring until dissolved. The solutions were permitted to cool to room temperature, packaged and sealed in glass vials. The stability tests described in Example 1 were performed and the test results were recorded.
as §1, with “urea” for “niacinamide”
as §1, with “urea, niacinamide,” for “niacinamide”, “kept either at room temperature or” for “kept”

Concentration of niacinamide needed to obtain a stable aqueous solution of 1.0% metronidazole ([2]; concentration of urea is 1.0%): about 4.0% | Urea concentration functionally equivalent to 1% niacinamide in inducing the solubility enhancing effect ([2]; from Examples 2 and 3, 1.0% metronidazole): about 2% | Concentration of niacinamide required to obtain a stable aqueous solution of 1.0% metronidazole ([2]; niacinamide as the only solubility enhancing agent): about 5%
SMILES: NC(=O)c1cccnc1 [niacinamide]
Water solubility limit [1]: about 50 % by weight

Results from stability test ([2]; 1.0% metronidazole + 1.0% urea + 3.0% niacinamide in water): Crystals | Results from stability test ([2]; 1.0% metronidazole + 1.0% urea + 4.0% niacinamide in water): Clear | Results from stability test ([2]; 1.0% metronidazole + 2% niacinamide in water): Crystals formed | Results from stability test ([2]; 1.0% metronidazole + 3% niacinamide in water): Crystals formed | Results from stability test ([2]; 1.0% metronidazole + 3.0% urea + 3.0% niacinamide in water): Clear | Results from stability test ([2]; 1.0% metronidazole + 4% niacinamide in water): Crystals formed | Results from stability test ([2]; 1.0% metronidazole + 4.0% urea + 1.0% niacinamide in water): Crystals | Results from stability test ([2]; 1.0% metronidazole + 5% niacinamide in water): Clear | Results from stability test ([2]; 1.0% metronidazole + 5.0% urea + 1.0% niacinamide in water): Clear | Results from stability test ([2]; 1.0% metronidazole + 5.0% urea + 1.0% niacinamide in water, listed as metronidazole): stable | Results from stability test ([2]; 1.0% metronidazole + 5.0% urea + 2.0% niacinamide in water): Clear | Results from stability test ([2]; 1.0% metronidazole + 7% urea in water): Crystals formed | Results from stability test ([2]; 1.0% metronidazole + 7% urea in water, listed as metronidazole): not sufficient to solubilize | Results from stability test ([2]; 1.0% metronidazole + 8% urea in water): Crystals formed | Results from stability test ([2]; 1.0% metronidazole + 9% urea in water): Crystals formed | Results from stability test ([2]; 1.0% metronidazole + 10% urea in water): Clear | Results from stability test ([2]; 1.2% metronidazole + 10.0% urea + 2.0% niacinamide in water): Clear | Results from stability test ([2]; 1.5% metronidazole + 15.0% urea + 4.0% niacinamide in water): Clear
SMILES: Cc1ncc([N+](=O)[O-])n1CCO [Metronidazole, 1-(2-hydroxyethyl)-2-methyl-5-nitroimidazole]

Concentration of urea needed to obtain a stable aqueous solution of 1.0% metronidazole ([2]; concentration of niacinamide is 1.0%): ≥ 5.0% | Concentration of urea required to obtain a stable aqueous solution of 1.0% metronidazole ([2]; urea as the only solubility enhancing agent): about 10%
SMILES: NC(N)=O [urea]
Water solubility limit [1]: about 50 % by weight
